From article PMC11047580, “Design and Synthesis of Novel Amino and Acetamidoaurones with Antimicrobial Activities” (Antibiotics, 2024)
Converted amounts (≈) assume the structure as drawn.

Experiments:
[1] = tested on: Fusarium oxysporum (DSM62316); test: MIC assay; format: cell-based; settings: two-fold serial dilutions in liquid media, n = 2–3
[2] = tested on: normal lung epithelial cells BEAS-2B; settings: human
[3] = tested on: Francisella tularensis (NR-643); test: microbe, parasite or virus in culture; format: cell-based; settings: read-out: MIC Francisella tularensis (NR-643)
[4] = tested on: human cells (A498, BEAS-2B, Caco-2, HaCaT, HepG2, IMR-90)
[5] = tested on: Aspergillus fumigatus (DSM819); test: MIC assay; format: cell-based; settings: two-fold serial dilutions in liquid media, n = 2–3
[6] = tested on: normal epidermal keratinocytes (HaCaT); settings: human
[7] = tested on: normal lung fibroblasts IMR-90; settings: human
[8] = tested on: Bacillus anthracis (CNR-charbon_04022); test: microbe, parasite or virus in culture; format: cell-based; settings: read-out: MIC Bacillus anthracis (CNR-charbon_04022)
Yersinia pestis (NR-641) = test: microbe, parasite or virus in culture; format: cell-based; settings: read-out: MIC Yersinia pestis (NR-641)
[9] = Cytotoxic assay (resazurin); settings: human, HepG2 liver cells
[10] = tested on: Shigella flexneri (ATCC12022); test: MIC assay; format: cell-based; settings: two-fold serial dilutions in liquid media, n = 2–3
[11] = tested on: Vibrio alginolyticus (DSM2171); test: MIC assay; format: cell-based; settings: two-fold serial dilutions in liquid media, n = 2–3
[12] = tested on: Candida glabrata (DSM11226); test: MIC assay; format: cell-based; settings: Nakaseomyces glabratus, two-fold serial dilutions in liquid media, n = 2–3
M. smegmatis ATCC700084 = test: MIC assay (REMA); format: cell-based, Mycobacterium smegmatis; settings: Mycolicibacterium smegmatis, ATCC700084, REMA microdilution, n = 2–3
[13] = Cytotoxic assay (resazurin); settings: human, BEAS-2B normal lung epithelial cells

CC(=O)Nc1ccc2c(c1)C(=O)/C(=C/c1cccc(OCc3ccccc3)c1)O2 [Compound 10, (Z)-N-(2-(3-(benzyloxy)benzylidene)-3-oxo-2,3-dihydrobenzofuran-5-yl)acetamide]
MIC [1]: 25 µM (≈ 9.64 µg/mL)
TI with MIC of 0.78 µM, BEAS-2B [2]: 216.6
MIC [3]: 50 µM (≈ 19.3 µg/mL)
TI values, range over human cells [4]: 216.6-605.6
MIC ([5]; Aspergillus fumigatus, DSM819): > 100 µM
MIC Aspergillus fumigatus (DSM819) [5]: inactive
TI with MIC of 0.78 µM, HaCaT [6]: 344.2
TI with MIC of 0.78 µM, IMR-90 [7]: 540.2
MIC [8]: 12.5 µM (≈ 4.82 µg/mL)
MIC (Yersinia pestis (NR-641)): 12.5 µM (≈ 4.82 µg/mL)
CC50 at 48 h [9]: 472 µM
MIC [10]: 25 µM (≈ 9.64 µg/mL)
MIC [11]: 25 µM (≈ 9.64 µg/mL)
MIC [12]: 50 µM (≈ 19.3 µg/mL)
MIC (M. smegmatis ATCC700084): 50 µM (≈ 19.3 µg/mL)
CC50 at 48 h [13]: 169 µM
